Reference: patent publication EP0745595A1, “3-(3-Aryloxyphenyl)-1-(substituted methyl)-s-triazine-2,4,6-oxo or thiotrione herbicidal agents” (American Cyanamid Company, priority 1995, dated 1996)

Assays:
Type in all cases: in vivo
SAGITTARIA PYGMAEA, L. = test: Preemergence weed control under flooded paddy conditions, SAGPY (Arrowhead (Pygmaea)); settings: preemergence, 3-4 weeks after treatment
Method: (§1) Results of herbicide evaluation are expressed on a rating scale (0-9). The scale is based upon a visual observation of plant stand, vigor, malformation, size, chlorosis and overall plant appearance as compared with a control.
(§2) Preemergence herbicidal activity under flooded paddy conditions is determined as follows: plant seeds or propagating organs are planted in the top 0.5 cm of silt loam soil in 32 oz. plastic containers with a diameter of 10.5 cm and no drainage holes. Water is added to these containers and maintained at 1.5 to 3 cm above the soil surface for the duration of the experiment. […] The treated containers are placed on greenhouse benches and cared for according to normal greenhouse procedures.- Three to four weeks after treatment the test is terminated and each container is examined and herbicidal effect rated according to the rating system provided in Example 40. The compounds evaluated are reported by compound number given in Example 40.
(§3) Plant species employed in this example are reported by header abbreviation, common name and scientific name.

[1] = tested on: ORYZA SATIVA, L. TEBONNET; test: Rice tolerance to post-transplant applications under flooded paddy conditions, ORYSAT (Rice, Tebonnet); settings: post-transplant rice, 3-4 weeks after treatment
Method: as §1
The tolerance of transplanted rice to post-transplanted herbicide applications is determined as follows: two ten-day-old rice seedlings (CV. Tebonnet) are transplanted into a silt loam soil in 32 oz. plastic containers with a diameter of 10.5 cm and no drainage holes. After transplanting the containers are flooded and the water level is maintained at 1.5 to 3 cm above the soil surface. […] The treated containers are placed on greenhouse benches, watered such that the water level is maintained as stated above, and cared for according to normal greenhouse procedures. Three to four weeks after treatment the test is terminated and each container is examined and herbicidal effect rated according to the rating system provided in Example 40. The compounds evaluated are reported by compound number given in Example 40.
as §3

CASSIA OBTUSIFOLIA, L. = test: Postemergence herbicidal evaluation, CASOB (Sicklepod); settings: rated four to five weeks after treatment, averaged
Method: (§4) In the tests, seedling plants are grown in jiffy flats for about two weeks. The test compounds are dispersed in 50/50 acetone/water mixtures containing 0.5% TWEEN®20, a polyoxyethylene sorbitan monolaurate surfactant of Atlas Chemical Industries, in sufficient quantities to provide the equivalent of about 0.125 kg to 0.500 kg per hectare of active compound when applied to the plants through a spray nozzle operating at 40 psi for a predetermined time. After spraying, the plants are placed on greenhouse benches and are cared for in the usual manner, commensurate with conventional greenhouse practices. From four to five weeks after treatment, the seedling plants are examined and rated according to the rating system set forth below. Where more than one test is involved for a given compound, the data are averaged.
(§5) Plant species employed in these evaluations are reported by header abbreviation, common name and scientific name.
as §1

[2] = tested on: ECHINOCHLOA ORYZOIDES (ARD.)FRITSCH; test: Preemergence weed control under flooded paddy conditions, ECHORC (Watergrass (Calif.)); settings: preemergence, 3-4 weeks after treatment
Method: as §1, §2, §3

CHENOPODIUM ALBUM, L. [3] = test: Postemergence herbicidal evaluation, CHEAL (Lambsquarters, Common); settings: rated four to five weeks after treatment, averaged
Method: as §4, with “in sufficient quantities to provide the equivalent of about 0.125 kg to 0.500 kg per hectare of active compound when applied” left out
as §5, §1

[…], PRESL. = Preemergence weed control under flooded paddy conditions, MOOVA (Monochoria); settings: preemergence, 3-4 weeks after treatment
Method: as §1
Preemergence herbicidal activity under flooded paddy conditions is determined as follows: plant seeds or propagating organs are planted in the top 0.5 cm of silt loam soil in 32 oz. plastic containers with a diameter of 10.5 cm and no drainage holes. Water is added to these containers and maintained at 1.5 to 3 cm above the soil surface for the duration of the experiment. The test compounds are applied as aqueous/acetone mixtures 50/50 v/v pipetted directly into the flood water to give the equivalent of about 0.5, 0.25, 0.125 and 0.063 kg/ha of active ingredient. The treated containers are placed on greenhouse benches and cared for according to normal greenhouse procedures.- Three to four weeks after treatment the test is terminated and each container is examined and herbicidal effect rated according to the rating system provided in Example 40. The compounds evaluated are reported by compound number given in Example 40.
as §3

IPOMOEA SPP. = test: Postemergence herbicidal evaluation, IPOSS (Morningglory spp.); settings: rated four to five weeks after treatment, averaged
Method: as §4, with “in sufficient quantities to provide the equivalent of about 0.125 kg to 0.500 kg per hectare of active compound when applied” left out
as §5, §1

[4] = tested on: ABUTILON THEOPHRASTI, MEDIC.; test: Postemergence herbicidal evaluation, ABUTH (Velvetleaf); settings: rated four to five weeks after treatment, averaged
Method: as §4, with “in sufficient quantities to provide the equivalent of about 0.125 kg to 0.500 kg per hectare of active compound when applied” left out
as §5, §1

GALIUM APARINE = test: Postemergence herbicidal evaluation, GALAP (Galium); settings: rated four to five weeks after treatment, averaged
Method: as §4, §5, §1

[5] = tested on: CYPERUS SEROTINUS, ROTTB.; test: Preemergence weed control under flooded paddy conditions, CYPSE (Flatsedge); settings: preemergence, 3-4 weeks after treatment
Method: as §1, §2, §3

[6] = tested on: AMBROSIA ARTEMISIIFOLIA, L.; test: Postemergence herbicidal evaluation, AMBEL (Ragweed, Common); settings: rated four to five weeks after treatment, averaged
Method: as §4, with “in sufficient quantities to provide the equivalent of about 0.125 kg to 0.500 kg per hectare of active compound when applied” left out
as §5, §1

CHENOPODIUM ALBUM, L. [7] = test: Preemergence herbicidal evaluation, CHEAL (Lambsquarters, Common); settings: rated four to five weeks after treatment
Description: as §1
The preemergence herbicidal activity of the test compounds of the present invention is exemplified by the following tests in which the seeds of a variety of monocotyledonous and dicotyledonous plants are separately mixed with potting soil and planted on top of approximately one inch of soil in separate pint cups. […] The treated cups are then placed on greenhouse benches, watered and cared for in accordance with conventional greenhouse procedures. From four to five weeks after treatment, the tests are terminated and each cup is examined and rated according to the rating system provided in Example 40.
The compounds evaluated are reported by compound number given in Example 40.

| SMILES | Herbicidal effect rating, SAGPY (SAGITTARIA PYGMAEA, L.; 0.063 kg/ha) | Herbicidal effect rating, SAGPY (SAGITTARIA PYGMAEA, L.; 0.125 kg/ha) | Herbicidal effect rating, SAGPY (SAGITTARIA PYGMAEA, L.; 0.250 kg/ha) | Herbicidal effect rating, SAGPY (SAGITTARIA PYGMAEA, L.; 0.500 kg/ha) | Herbicidal effect rating, ORYSAT ([1]; 0.063 kg/ha) | Herbicidal effect rating, ORYSAT ([1]; 0.125 kg/ha) | Herbicidal effect rating, ORYSAT ([1]; 0.250 kg/ha) | Herbicidal effect rating, ORYSAT ([1]; 0.500 kg/ha) | CASOB, herbicide rating (0-9) (CASSIA OBTUSIFOLIA, L.; Rate 0.125 kg/ha) | CASOB, herbicide rating (0-9) (CASSIA OBTUSIFOLIA, L.; Rate 0.250 kg/ha) | CASOB, herbicide rating (0-9) (CASSIA OBTUSIFOLIA, L.; Rate 0.500 kg/ha) | Herbicidal effect rating, MOOVA ([…], PRESL.; 0.063 kg/ha) | Herbicidal effect rating, MOOVA ([…], PRESL.; 0.125 kg/ha) | Herbicidal effect rating, MOOVA ([…], PRESL.; 0.250 kg/ha) | Herbicidal effect rating, MOOVA ([…], PRESL.; 0.500 kg/ha) | IPOSS, herbicide rating (0-9) (IPOMOEA SPP.; Rate 0.125 kg/ha) | IPOSS, herbicide rating (0-9) (IPOMOEA SPP.; Rate 0.250 kg/ha) | ABUTH, herbicide rating (0-9) ([4]; Rate 0.125 kg/ha) | ABUTH, herbicide rating (0-9) ([4]; Rate 0.250 kg/ha) | ABUTH, herbicide rating (0-9) ([4]; Rate 0.500 kg/ha) | other results |
| --- | --- | --- | --- | --- | --- | --- | --- | --- | --- | --- | --- | --- | --- | --- | --- | --- | --- | --- | --- | --- | --- |
| COC(=O)Cn1c(=O)n(C)c(=O)n(-c2cc(Oc3ccc(Cl)c(Cl)c3Cl)ccc2[N+](=O)[O-])c1=O [Compound 26, Methyl 3-[2-nitro-5-(2,3,4-trichlorophen-oxy)phenyl]tetrahydro-5-methyl-2,4,6-tri-oxo-s-triazine-1(2H)-acetate] | 0.0 | 0.0 | 0.0 | 0.0 | 2.0 | 2.0 | 3.0 | 3.0 | – | – | – | – | – | – | – | – | – | – | – | – | – |
| COC(=O)Cn1c(=O)n(C)c(=O)n(-c2cc(Oc3ccc(Cl)cc3Cl)ccc2[N+](=O)[O-])c1=O [Compound 18, Methyl 3-[5-(2,4-dichlorophenoxy)-2-nitrophenyl]tetrahydro-5-methyl-2,4,6-trioxo-s-trizine-1(2H)-acetate] | – | – | – | – | 2.0 | 3.0 | 3.0 | 4.0 | 9.0 | 9.0 | 9.0 | 9.0 | 9.0 | 9.0 | 9.0 | 9.0 | 9.0 | 9.0 | 9.0 | 9.0 | Herbicidal effect rating, ECHORC ([2]; 0.063 kg/ha): 9.0; Herbicidal effect rating, ECHORC ([2]; 0.125 kg/ha): 9.0; Herbicidal effect rating, ECHORC ([2]; 0.250 kg/ha): 9.0; Herbicidal effect rating, ECHORC ([2]; 0.500 kg/ha): 9.0; CHEAL, herbicide rating (0-9) (CHENOPODIUM ALBUM, L. [3]; Rate 0.125 kg/ha): 9.0; CHEAL, herbicide rating (0-9) (CHENOPODIUM ALBUM, L. [3]; Rate 0.250 kg/ha): 9.0; CHEAL, herbicide rating (0-9) (CHENOPODIUM ALBUM, L. [3]; Rate 0.500 kg/ha): 9.0; IPOSS, herbicide rating (0-9) (IPOMOEA SPP.; Rate 0.500 kg/ha): 9.0; GALAP, herbicide rating (0-9) (GALIUM APARINE; Rate 0.125 kg/ha): 9.0; GALAP, herbicide rating (0-9) (GALIUM APARINE; Rate 0.250 kg/ha): 9.0; GALAP, herbicide rating (0-9) (GALIUM APARINE; Rate 0.500 kg/ha): 9.0 |
| COC(=O)Cn1c(=O)n(CC(=O)OC)c(=O)n(-c2cc(Oc3ccc(Cl)cc3Cl)ccc2[N+](=O)[O-])c1=O [Compound 19, Dimethyl 5-[5-(2,4-dichlorophenoxy)-2-nitro-phenyl]dihydro-2,4,6-trioxo-s-trizine-1,3-(2H,4H)-diacetate] | 0.0 | 0.0 | 0.0 | 0.0 | 1.0 | 1.0 | 1.0 | 1.0 | 9.0 | 9.0 | 9.0 | 9.0 | 9.0 | 9.0 | 9.0 | – | – | 9.0 | 9.0 | 9.0 | Herbicidal effect rating, CYPSE ([5]; 0.063 kg/ha): 0.0; Herbicidal effect rating, CYPSE ([5]; 0.125 kg/ha): 0.0; Herbicidal effect rating, CYPSE ([5]; 0.250 kg/ha): 0.0; Herbicidal effect rating, CYPSE ([5]; 0.500 kg/ha): 0.0; GALAP, herbicide rating (0-9) (GALIUM APARINE; Rate 0.125 kg/ha): 9.0; GALAP, herbicide rating (0-9) (GALIUM APARINE; Rate 0.250 kg/ha): 9.0; GALAP, herbicide rating (0-9) (GALIUM APARINE; Rate 0.500 kg/ha): 9.0 |
| COC(=O)Cn1c(=O)n(C)c(=O)n(-c2cc(Oc3ccc(Cl)c(C)c3Cl)ccc2[N+](=O)[O-])c1=O [Compound 20, Methyl 3-{5-[(2,4-dichloro-m-tolyl)oxy]-2-nitrophenyl}tetrahydro-5-methyl-2,4,6-trioxo-s-triazine-1(2H)-acetate] | 0.0 | 0.0 | 0.0 | 0.0 | 2.0 | 3.0 | 3.0 | 4.0 | – | – | – | – | – | – | – | 9.0 | 9.0 | 9.0 | 9.0 | 9.0 | IPOSS, herbicide rating (0-9) (IPOMOEA SPP.; Rate 0.500 kg/ha): 9.0 |
| Cn1c(=O)n(CC(=O)O)c(=O)n(-c2cc(Oc3c(F)cc(C(F)(F)F)cc3Cl)ccc2[N+](=O)[O-])c1=O [Compound 15, 3-{5-[(2-Chloro-α,α,α,6-tetrafluoro-p-tolyl)oxy]-2-nitrophenyl}tetrahydro-5-methyl-2,4,6-trioxo-s-triazine-1(2H)-acetic acid] | – | – | – | – | 4.5 | 4.5 | 7.0 | 7.0 | 9.0 | 9.0 | 9.0 | 9.0 | 9.0 | 9.0 | 9.0 | – | – | 9.0 | 9.0 | 9.0 | AMBEL, herbicide rating (0-9) ([6]; Rate 0.125 kg/ha): 9.0; AMBEL, herbicide rating (0-9) ([6]; Rate 0.250 kg/ha): 9.0; AMBEL, herbicide rating (0-9) ([6]; Rate 0.500 kg/ha): 9.0; CHEAL herbicidal rating (CHENOPODIUM ALBUM, L. [7]; Rate 0.125 kg/ha): 9.0; CHEAL herbicidal rating (CHENOPODIUM ALBUM, L. [7]; Rate 0.250 kg/ha): 9.0; CHEAL herbicidal rating (CHENOPODIUM ALBUM, L. [7]; Rate 0.500 kg/ha): 9.0 |
| COC(=O)Cn1c(=O)n(C)c(=O)n(-c2cc(Oc3ccc(Cl)cc3F)ccc2[N+](=O)[O-])c1=O [Compound 23, Methyl 3-[5-(4-chloro-2-fluorophenoxy)-2-nitrophenyl]tetrahydro-5-methyl-2,4,6-trioxo-s-triazine-1(2H)-acetate] | 0.0 | 0.0 | 0.0 | 0.0 | 2.0 | 2.0 | 3.0 | 3.0 | – | – | – | – | – | – | – | – | – | – | – | – | – |
